Each block holds one compound with its values, some of them ahead of it.
Columns and labels:
BRISC [1] = target: T1, BRISC (Homo sapiens, UniProt P46736+Q15018+Q9NXR7); assay: Compound library screening and hit validation (IQF diubiquitin, 1 nM BRISC); format: biochemical
T1 construct: made in house; host or cells: Spodoptera frugiperda (Sf9) insect cells, MultiBac
Method: Assays were performed in 384-well black flat-bottom low-flange plates (Corning, 35373) in buffer containing 50 mM HEPES–NaOH pH 7.0, 100 mM NaCl, 1 mg ml^−1 BSA, 1 mM DTT and 0.03% v/v Brij-35. Then, 10 μl of twofold concentrated enzyme stock was dispensed, followed by transfer of 200 nl of compounds (1 mM stock) using a 384-pin tool and a 15-min incubation at room temperature. Then, 10 μl of twofold concentrated substrate stock was added and the reaction was monitored by measuring fluorescence intensity (excitation, 540 nm; emission, 580 nm) after 20-min incubation at room temperature and ~50% of substrate was consumed. Orthogonal assays for verification of H20 and P12 hit compounds using USP2 (100 nM) and trypsin (125 nM) were performed in identical conditions.

BRISC [2] = target: T1, BRISC; assay: BRISC DUB activity assay (IQF K63-linked diubiquitin); format: biochemical
Method: IQF assays were performed in DUB reaction buffer containing 50 mM HEPES–NaOH pH 7.0, 100 mM NaCl, 0.1 mg ml^−1 BSA, 1 mM DTT and 0.03% v/v Brij-35. […] The final concentration of BRISC WT, all BRISC mutants, HsBRISCΔLoop, MmBRISC and DrBRISCΔNΔC was 1 nM. Other enzymes were tested at the following concentrations: 5 nM ARISC (FL), 10 nM CfBRISCΔNΔC, 250 nM AMSH* (ref. [43]), 500 nM USP2 and 1 μM trypsin (Sigma, 9002-07-7). For Michaelis–Menten experiments, 1 nM BRISC with 0–1 μM IQF K63-linked diubiquitin substrate was used. Michaelis–Menten analyses and Lineweaver–Burk plots were calculated using GraphPad Prism (version 9.0).
To assess enzymatic activity, BRISC complexes were diluted to concentrations between 1 nM and 50 nM. […] Then, 20-μl enzyme reactions were carried out in 384-well black flat-bottom low-flange plates (Corning, 35373). DUB activity was measured using IQF K63-linked diubiquitin (LifeSensors, DU6303) at 50 nM. Cleaved diubiquitin was monitored by measuring fluorescence intensity (excitation, 544 nm; emission, 575 nm; dichroic mirror, 560 nm). Fluorescence intensity was measured every minute for 30 min at 30 °C. Fluorescence intensity units were plotted against time to generate a linear reaction progress curve, where the initial velocity (V0) corresponds to the gradient of the curve (typically achieved within 15 min). IC50 values were calculated using the GraphPad Prism (version 9.0) built-in dose–response equation for inhibitor concentration versus response (variable slope).

- normalised V0, Mean (BRISC [1]; log[compound (μM)] 0.0000): 0.9360
- normalised V0, Mean (BRISC [1]; log[compound (μM)] 1.0000): 0.9184
- normalised V0, Mean (BRISC [1]; log[compound (μM)] 1.3010): 0.8902
- normalised V0, Mean (BRISC [1]; log[compound (μM)] 1.6990): 0.8666
- normalised V0, Mean (BRISC [1]; log[compound (μM)] 2.0000): 0.8425
- normalised V0, Mean (BRISC [1]; log[compound (μM)] -3.0000, normalisation point): 1
Structure (SMILES): O=C(NC1CCNCC1)c1n[nH]cc1NC(=O)c1c(Cl)cccc1Cl [AT7519 (Synkinase)]

- inhibition of BRISC DUB activity (in words) (BRISC [2]; IQF diubiquitin assay): neither inhibited
Structure (SMILES): O=C(NC1CCNCC1)c1n[nH]cc1NC(=O)c1c(Cl)cccc1Cl [AT7519, N-(4-piperidinyl)-4-(2,6-dichlorobenzoylamino)-1H-pyrazole-3-carboxamide, reference compound]

- IC50 (BRISC [2]; IQF K63-linked diubiquitin substrate, read-out: IC50, inhibition of BRISC DUB activity): 5.2 µM
- normalised V0, Mean (BRISC [2]; inhibitor 0.0268861 μM): 1
- normalised V0, Mean (BRISC [2]; inhibitor 0.268861 μM): 0.8889
- normalised V0, Mean (BRISC [2]; inhibitor 0.806584 μM): 0.8346
- normalised V0, Mean (BRISC [2]; inhibitor 2.41975 μM): 0.6971
- normalised V0, Mean (BRISC [2]; inhibitor 7.25926 μM): 0.4496
- normalised V0, Mean (BRISC [2]; inhibitor 21.7778 μM): 0.3208
- normalised V0, Mean (BRISC [2]; inhibitor 65.3333 μM): 0.1744
- normalised V0, Mean (BRISC [2]; inhibitor 196 μM): 0.1298
Structure (SMILES): CN1CCC(NC(=O)c2nn(C(=O)c3c(Cl)cccc3Cl)cc2NC(=O)c2c(Cl)cccc2Cl)CC1 [FX-25-1]

- normalised V0, Mean (BRISC [1]; log[compound (μM)] 0.0000): 0.9555
- normalised V0, Mean (BRISC [1]; log[compound (μM)] 0.6990): 1.0013
- normalised V0, Mean (BRISC [1]; log[compound (μM)] 1.0000): 1.0109
- normalised V0, Mean (BRISC [1]; log[compound (μM)] 1.4771): 0.9903
- normalised V0, Mean (BRISC [1]; log[compound (μM)] 1.6990): 1.0462
- normalised V0, Mean (BRISC [1]; log[compound (μM)] 2.0000): 1.0357
- normalised V0, Mean (BRISC [1]; log[compound (μM)] 2.3010): 0.9736
- normalised V0, Mean (BRISC [1]; log[compound (μM)] -1.0000): 1.0118
- normalised V0, Mean (BRISC [1]; log[compound (μM)] -1.3010): 0.9395
- normalised V0, Mean (BRISC [1]; log[compound (μM)] -4.0000): 1.0025
Structure (SMILES): O=C(NC1CCNCC1)c1n[nH]cc1NC(=O)c1c(Cl)cccc1Cl [AT7519 (Sellekchem)]
